Key:
[1] = biological target: Sodium-dependent noradrenaline transporter (Homo sapiens, UniProt P23975); experiment: GPCRScan assay: inhibition of NET; set-up: radioligand conc. used [nm] 1.3 – 5.0, parental cells stable HEK
[2] = biological target: Serine/threonine-protein kinase SIK2 (Homo sapiens) (UniProt Q9H0K1); conditions: Compound concentration 1000.0 nM
[3] = biological target: Myosin light chain kinase family member 4 (Homo sapiens) (UniProt Q86YV6); conditions: Compound concentration 1000.0 nM
[4] = biological target: AP2-associated protein kinase 1 (Homo sapiens) (UniProt Q2M2I8); conditions: Compound concentration 1000.0 nM
[5] = system: Serine/threonine-protein kinase B-raf (Homo sapiens), P15056 [V600E]; conditions: Compound concentration 1000.0 nM
[6] = biological target: Dual specificity mitogen-activated protein kinase kinase 4 (Homo sapiens) (UniProt P45985); conditions: Compound concentration 1000.0 nM
[7] = biological target: Serine/threonine-protein kinase Nek9 (Homo sapiens) (UniProt Q8TD19); conditions: Compound concentration 1000.0 nM
[8] = biological target: Bone morphogenetic protein receptor type-2 (Homo sapiens) (UniProt Q13873); conditions: Compound concentration 1000.0 nM
[9] = biological target: Casein kinase I isoform gamma-1 (Homo sapiens) (UniProt Q9HCP0); conditions: Compound concentration 1000.0 nM
[10] = biological target: Ribosomal protein S6 kinase alpha-6 (Homo sapiens) (UniProt Q9UK32); conditions: Compound concentration 1000.0 nM
[11] = biological target: Receptor tyrosine-protein kinase erbB-3 (Homo sapiens) (UniProt P21860); conditions: Compound concentration 1000.0 nM
[12] = biological target: Serine/threonine-protein kinase TBK1 (Homo sapiens) (UniProt Q9UHD2); conditions: Compound concentration 1000.0 nM
[13] = biological target: Serine/threonine-protein kinase Sgk3 (Homo sapiens) (UniProt Q96BR1); conditions: Compound concentration 1000.0 nM
[14] = biological target: Serine/threonine-protein kinase WNK2 (Homo sapiens) (UniProt Q9Y3S1); conditions: Compound concentration 1000.0 nM
[15] = biological target: Tyrosine-protein kinase Srms (Homo sapiens) (UniProt Q9H3Y6); conditions: Compound concentration 1000.0 nM
[16] = biological target: Serine/threonine-protein kinase 4 (Homo sapiens) (UniProt Q13043); conditions: Compound concentration 1000.0 nM
[17] = biological target: Serine/threonine-protein kinase pim-3 (Homo sapiens) (UniProt Q86V86); conditions: Compound concentration 1000.0 nM
[18] = biological target: Receptor-interacting serine/threonine-protein kinase 1 (Homo sapiens) (UniProt Q13546); conditions: Compound concentration 1000.0 nM
[19] = biological target: Mitogen-activated protein kinase kinase kinase kinase 2 (Homo sapiens) (UniProt Q12851); conditions: Compound concentration 1000.0 nM
[20] = biological target: Tyrosine-protein kinase JAK1 (Homo sapiens) (UniProt P23458); conditions: Compound concentration 1000.0 nM
[21] = biological target: Phosphatidylinositol 4-kinase beta (Homo sapiens) (UniProt Q9UBF8); conditions: Compound concentration 1000.0 nM
[22] = biological target: Cyclin-dependent kinase 4 (Homo sapiens) (UniProt P11802); conditions: Compound concentration 1000.0 nM
[23] = biological target: Mitogen-activated protein kinase kinase kinase 10 (Homo sapiens) (UniProt Q02779); conditions: Compound concentration 1000.0 nM
[24] = biological target: Tyrosine-protein kinase Tec (Homo sapiens) (UniProt P42680); conditions: Compound concentration 1000.0 nM
[25] = biological target: Mitogen-activated protein kinase kinase kinase 5 (Homo sapiens) (UniProt Q99683); conditions: Compound concentration 1000.0 nM
[26] = biological target: cAMP-dependent protein kinase catalytic subunit beta (Homo sapiens) (UniProt P22694); conditions: Compound concentration 1000.0 nM
[27] = biological target: Cyclin-dependent kinase 9 (Homo sapiens) (UniProt P50750); conditions: Compound concentration 1000.0 nM
[28] = biological target: Mitogen-activated protein kinase 7 (Homo sapiens) (UniProt Q13164); conditions: Compound concentration 1000.0 nM
[29] = biological target: TGF-beta receptor type-2 (Homo sapiens) (UniProt P37173); conditions: Compound concentration 1000.0 nM
[30] = biological target: Mitogen-activated protein kinase kinase kinase 11 (Homo sapiens) (UniProt Q16584); conditions: Compound concentration 1000.0 nM
[31] = biological target: Interferon-induced, double-stranded RNA-activated protein kinase (Homo sapiens) (UniProt P19525); conditions: Compound concentration 1000.0 nM
[32] = biological target: Tyrosine-protein kinase Fer (Homo sapiens) (UniProt P16591); conditions: Compound concentration 1000.0 nM
[33] = biological target: MAP kinase-interacting serine/threonine-protein kinase 1 (Homo sapiens) (UniProt Q9BUB5); conditions: Compound concentration 1000.0 nM
[34] = biological target: Serine/threonine-protein kinase PAK 1 (Homo sapiens) (UniProt Q13153); conditions: Compound concentration 1000.0 nM
[35] = biological target: Serine/threonine-protein kinase NLK (Homo sapiens) (UniProt Q9UBE8); conditions: Compound concentration 1000.0 nM
[36] = biological target: LIM domain kinase 2 (Homo sapiens) (UniProt P53671); conditions: Compound concentration 1000.0 nM
[37] = biological target: Tyrosine-protein kinase JAK1 (Homo sapiens) (UniProt P23458); conditions: Compound concentration 1000.0 nM; remark: listed apart in the source
[38] = biological target: Serine/threonine-protein kinase PknB (Mycobacterium tuberculosis) (UniProt P9WI81); conditions: Compound concentration 1000.0 nM
[39] = system: Receptor-type tyrosine-protein kinase FLT3 (Homo sapiens), P36888 [UNDEFINED MUTATION]; conditions: Compound concentration 1000.0 nM
[40] = biological target: cGMP-dependent protein kinase 1 (Homo sapiens) (UniProt Q13976); conditions: Compound concentration 1000.0 nM
[41] = biological target: Tyrosine-protein kinase ITK/TSK (Homo sapiens) (UniProt Q08881); conditions: Compound concentration 1000.0 nM
[42] = biological target: Tyrosine-protein kinase Fyn (Homo sapiens) (UniProt P06241); conditions: Compound concentration 1000.0 nM
[43] = biological target: ALK tyrosine kinase receptor (Homo sapiens) (UniProt Q9UM73); conditions: Compound concentration 1000.0 nM
[44] = biological target: Serine/threonine-protein kinase Sgk1 (Homo sapiens) (UniProt O00141); conditions: Compound concentration 1000.0 nM
[45] = biological target: Maternal embryonic leucine zipper kinase (Homo sapiens) (UniProt Q14680); conditions: Compound concentration 1000.0 nM

Sequence of Tyrosine-protein kinase JAK1 (Homo sapiens) (P23458 whole entry): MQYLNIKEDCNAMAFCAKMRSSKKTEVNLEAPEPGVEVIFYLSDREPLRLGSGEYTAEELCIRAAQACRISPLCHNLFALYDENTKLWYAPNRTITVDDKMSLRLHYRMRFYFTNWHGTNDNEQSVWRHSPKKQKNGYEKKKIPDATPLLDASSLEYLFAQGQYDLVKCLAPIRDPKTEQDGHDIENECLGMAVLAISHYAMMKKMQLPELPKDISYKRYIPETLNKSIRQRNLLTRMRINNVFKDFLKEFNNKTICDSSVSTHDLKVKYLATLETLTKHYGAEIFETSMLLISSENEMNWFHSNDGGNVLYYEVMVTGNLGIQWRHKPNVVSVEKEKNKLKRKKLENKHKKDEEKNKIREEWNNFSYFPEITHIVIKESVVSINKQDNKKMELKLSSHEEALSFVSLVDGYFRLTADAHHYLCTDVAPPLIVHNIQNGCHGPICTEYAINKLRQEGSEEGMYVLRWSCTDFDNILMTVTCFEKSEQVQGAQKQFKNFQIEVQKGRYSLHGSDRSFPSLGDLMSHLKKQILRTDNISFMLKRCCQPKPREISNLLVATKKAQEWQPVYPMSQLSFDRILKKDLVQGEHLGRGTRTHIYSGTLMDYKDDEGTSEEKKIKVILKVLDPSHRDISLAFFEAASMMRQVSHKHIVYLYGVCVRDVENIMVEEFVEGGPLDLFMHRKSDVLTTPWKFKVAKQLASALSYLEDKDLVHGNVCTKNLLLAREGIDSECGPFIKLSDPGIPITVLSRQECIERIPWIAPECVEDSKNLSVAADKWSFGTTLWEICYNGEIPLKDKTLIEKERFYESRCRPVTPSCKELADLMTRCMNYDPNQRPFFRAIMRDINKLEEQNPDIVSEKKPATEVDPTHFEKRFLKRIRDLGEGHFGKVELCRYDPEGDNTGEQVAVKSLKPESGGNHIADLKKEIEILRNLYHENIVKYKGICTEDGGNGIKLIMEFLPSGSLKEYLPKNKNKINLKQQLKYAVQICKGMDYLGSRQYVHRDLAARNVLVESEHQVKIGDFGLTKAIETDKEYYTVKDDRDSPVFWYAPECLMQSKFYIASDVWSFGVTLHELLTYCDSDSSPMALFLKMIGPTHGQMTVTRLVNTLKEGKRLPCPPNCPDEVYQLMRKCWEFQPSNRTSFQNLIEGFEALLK
Sequence of Receptor-interacting serine/threonine-protein kinase 1 (Homo sapiens) (Q13546 whole entry): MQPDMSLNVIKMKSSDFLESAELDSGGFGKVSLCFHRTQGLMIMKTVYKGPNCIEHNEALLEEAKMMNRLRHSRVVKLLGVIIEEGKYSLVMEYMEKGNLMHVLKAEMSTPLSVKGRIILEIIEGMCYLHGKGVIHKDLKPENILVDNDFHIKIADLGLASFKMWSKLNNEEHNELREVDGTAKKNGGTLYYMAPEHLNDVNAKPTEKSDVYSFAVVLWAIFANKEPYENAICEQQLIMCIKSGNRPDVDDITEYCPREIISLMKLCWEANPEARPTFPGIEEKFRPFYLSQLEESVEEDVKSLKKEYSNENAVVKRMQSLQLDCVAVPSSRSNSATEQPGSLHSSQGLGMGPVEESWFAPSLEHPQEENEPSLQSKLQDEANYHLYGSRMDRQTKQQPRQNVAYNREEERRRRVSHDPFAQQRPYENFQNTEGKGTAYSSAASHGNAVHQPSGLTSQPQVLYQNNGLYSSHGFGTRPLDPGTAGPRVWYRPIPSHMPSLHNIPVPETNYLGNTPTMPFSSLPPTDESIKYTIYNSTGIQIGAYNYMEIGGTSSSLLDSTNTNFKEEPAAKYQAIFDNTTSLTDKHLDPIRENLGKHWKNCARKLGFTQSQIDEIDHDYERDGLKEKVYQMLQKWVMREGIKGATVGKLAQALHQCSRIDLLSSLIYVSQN
Sequence of Mitogen-activated protein kinase kinase kinase 11 (Homo sapiens) (Q16584 whole entry, looked up): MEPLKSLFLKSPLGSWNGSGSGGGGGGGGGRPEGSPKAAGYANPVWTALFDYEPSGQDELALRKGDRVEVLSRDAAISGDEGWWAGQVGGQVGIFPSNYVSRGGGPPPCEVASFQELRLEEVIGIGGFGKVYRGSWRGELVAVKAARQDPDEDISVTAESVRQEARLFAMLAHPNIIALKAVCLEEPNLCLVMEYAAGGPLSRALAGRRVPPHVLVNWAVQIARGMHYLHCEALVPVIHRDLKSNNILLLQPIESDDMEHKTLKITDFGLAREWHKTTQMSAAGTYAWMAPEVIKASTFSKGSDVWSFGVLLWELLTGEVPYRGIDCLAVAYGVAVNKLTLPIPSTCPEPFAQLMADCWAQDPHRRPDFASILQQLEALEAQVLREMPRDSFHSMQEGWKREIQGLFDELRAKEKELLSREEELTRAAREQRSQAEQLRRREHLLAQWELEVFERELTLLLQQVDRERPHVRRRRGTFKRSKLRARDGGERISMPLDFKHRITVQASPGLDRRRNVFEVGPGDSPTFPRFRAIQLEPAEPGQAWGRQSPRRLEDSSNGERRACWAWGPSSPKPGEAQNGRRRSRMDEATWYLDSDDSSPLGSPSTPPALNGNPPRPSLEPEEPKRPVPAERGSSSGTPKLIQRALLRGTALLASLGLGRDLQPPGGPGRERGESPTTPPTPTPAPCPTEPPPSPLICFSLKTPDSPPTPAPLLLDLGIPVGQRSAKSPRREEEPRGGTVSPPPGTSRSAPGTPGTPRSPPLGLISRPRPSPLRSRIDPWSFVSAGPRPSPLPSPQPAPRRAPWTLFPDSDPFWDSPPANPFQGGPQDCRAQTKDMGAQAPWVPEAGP
Sequence of Serine/threonine-protein kinase TBK1 (Homo sapiens) (Q9UHD2 whole entry): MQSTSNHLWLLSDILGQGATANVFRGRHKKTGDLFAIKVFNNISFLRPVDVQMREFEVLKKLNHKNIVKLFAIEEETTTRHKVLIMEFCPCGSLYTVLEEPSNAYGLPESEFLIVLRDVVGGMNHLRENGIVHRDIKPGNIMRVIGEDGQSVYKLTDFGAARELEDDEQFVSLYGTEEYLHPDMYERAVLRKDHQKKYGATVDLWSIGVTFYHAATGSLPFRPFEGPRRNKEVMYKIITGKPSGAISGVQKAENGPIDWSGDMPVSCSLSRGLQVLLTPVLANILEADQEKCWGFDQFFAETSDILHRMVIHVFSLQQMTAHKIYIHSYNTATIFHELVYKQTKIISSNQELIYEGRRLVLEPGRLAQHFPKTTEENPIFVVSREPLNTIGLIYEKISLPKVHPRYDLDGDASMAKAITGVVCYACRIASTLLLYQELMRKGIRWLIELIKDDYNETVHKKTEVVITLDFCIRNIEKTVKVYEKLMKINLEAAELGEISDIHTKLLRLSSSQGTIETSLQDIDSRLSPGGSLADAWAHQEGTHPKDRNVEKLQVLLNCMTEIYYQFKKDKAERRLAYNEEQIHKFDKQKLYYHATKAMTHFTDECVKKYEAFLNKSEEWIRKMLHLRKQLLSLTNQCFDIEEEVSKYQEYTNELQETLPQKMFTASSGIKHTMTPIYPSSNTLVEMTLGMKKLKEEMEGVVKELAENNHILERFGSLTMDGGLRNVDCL
Sequence of Serine/threonine-protein kinase Sgk1 (Homo sapiens) (O00141 whole entry): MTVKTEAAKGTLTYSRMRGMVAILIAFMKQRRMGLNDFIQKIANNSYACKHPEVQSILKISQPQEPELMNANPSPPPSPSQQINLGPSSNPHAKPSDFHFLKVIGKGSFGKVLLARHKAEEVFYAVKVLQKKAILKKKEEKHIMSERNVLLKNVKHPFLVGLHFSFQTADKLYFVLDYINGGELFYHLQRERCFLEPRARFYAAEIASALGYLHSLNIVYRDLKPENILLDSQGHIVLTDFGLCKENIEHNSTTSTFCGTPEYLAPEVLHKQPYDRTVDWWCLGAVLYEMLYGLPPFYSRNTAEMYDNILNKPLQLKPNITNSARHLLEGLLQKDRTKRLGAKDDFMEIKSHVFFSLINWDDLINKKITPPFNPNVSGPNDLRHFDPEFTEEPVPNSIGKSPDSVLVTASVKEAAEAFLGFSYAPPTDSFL
Sequence of Interferon-induced, double-stranded RNA-activated protein kinase (Homo sapiens) (P19525 whole entry): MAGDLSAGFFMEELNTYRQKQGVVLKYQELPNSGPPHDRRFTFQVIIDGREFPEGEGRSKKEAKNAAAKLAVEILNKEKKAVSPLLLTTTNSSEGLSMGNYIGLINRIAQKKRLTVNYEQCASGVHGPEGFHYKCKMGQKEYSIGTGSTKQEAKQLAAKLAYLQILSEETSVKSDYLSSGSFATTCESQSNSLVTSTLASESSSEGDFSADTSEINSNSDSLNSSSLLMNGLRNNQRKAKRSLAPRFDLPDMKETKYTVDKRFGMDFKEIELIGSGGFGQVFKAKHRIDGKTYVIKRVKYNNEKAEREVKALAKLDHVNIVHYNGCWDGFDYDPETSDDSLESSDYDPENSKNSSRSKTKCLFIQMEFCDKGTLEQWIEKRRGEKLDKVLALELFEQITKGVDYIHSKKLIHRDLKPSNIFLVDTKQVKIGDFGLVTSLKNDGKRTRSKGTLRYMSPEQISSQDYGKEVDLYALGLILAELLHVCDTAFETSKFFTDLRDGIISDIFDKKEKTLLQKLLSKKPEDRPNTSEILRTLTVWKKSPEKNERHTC
Sequence of Sodium-dependent noradrenaline transporter (P23975 whole entry): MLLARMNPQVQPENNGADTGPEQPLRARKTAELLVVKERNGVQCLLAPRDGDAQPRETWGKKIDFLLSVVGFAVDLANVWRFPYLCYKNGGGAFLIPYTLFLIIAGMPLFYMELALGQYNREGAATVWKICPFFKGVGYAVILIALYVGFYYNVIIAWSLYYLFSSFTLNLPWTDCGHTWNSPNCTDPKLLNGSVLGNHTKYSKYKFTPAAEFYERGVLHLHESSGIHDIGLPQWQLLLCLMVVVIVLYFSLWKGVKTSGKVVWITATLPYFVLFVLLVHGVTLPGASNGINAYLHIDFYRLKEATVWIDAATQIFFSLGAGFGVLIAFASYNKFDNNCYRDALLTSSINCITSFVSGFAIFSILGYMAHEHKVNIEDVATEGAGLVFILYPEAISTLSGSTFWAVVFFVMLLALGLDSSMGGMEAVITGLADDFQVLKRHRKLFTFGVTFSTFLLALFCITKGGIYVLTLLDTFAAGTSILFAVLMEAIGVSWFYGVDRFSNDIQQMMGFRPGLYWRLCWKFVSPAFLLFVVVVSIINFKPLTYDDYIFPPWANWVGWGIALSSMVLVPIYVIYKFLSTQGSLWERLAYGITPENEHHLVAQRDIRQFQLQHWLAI

CC(C)(C)OC(=O)N1CCCC1CNC1CCC(c2cc(F)ccc2F)(S(=O)(=O)c2ccc(Cl)cc2)CC1 (stereo not given) [GSI-NC]
Ki [1]: 2430 nM

O=S(=O)(NC1CCC(c2cc(F)ccc2F)(S(=O)(=O)c2ccc(Cl)cc2)CC1)C(F)(F)F (stereo not given) [MRK-560]
residual activity [2]: 100% | residual activity [3]: 100% | residual activity [4]: 96% | residual activity [5]: 86% | residual activity [6]: 76% | residual activity [7]: 100% | residual activity [8]: 100% | residual activity [9]: 86% | residual activity [10]: 83% | residual activity [11]: 93% | residual activity [12]: 100% | residual activity [13]: 89% | residual activity [14]: 77% | residual activity [15]: 100% | residual activity [16]: 100% | residual activity [17]: 100% | residual activity [18]: 100% | residual activity [19]: 100% | residual activity [20]: 100% | residual activity [21]: 82% | residual activity [22]: 81% | residual activity [23]: 100% | residual activity [24]: 100% | residual activity [25]: 80% | residual activity [26]: 98% | residual activity [27]: 91% | residual activity [28]: 92% | residual activity [29]: 100% | residual activity [30]: 100% | residual activity [31]: 87% | residual activity [32]: 100% | residual activity [33]: 93% | residual activity [34]: 93% | residual activity [35]: 100% | residual activity [36]: 87% | residual activity [37]: 70% | residual activity [38]: 91% | residual activity [39]: 100% | residual activity [40]: 100% | residual activity [41]: 97% | residual activity [42]: 85% | residual activity [43]: 100% | residual activity [44]: 83% | residual activity [45]: 69%
